In publication PMC7822874, “Chemoprotective antimalarials identified through quantitative high-throughput screening of Plasmodium blood and liver stage parasites” (Scientific Reports, 2021):
Where two headings read alike, the source gives them in different places.

Key:
[1] = system: Plasmodium falciparum Dd2 asexual blood stage parasites; test: microbe, parasite or virus in culture; parameters: species or system Plasmodium falciparum Dd2 in human erythrocytes; single determination (one 11-point concentration-response curve); conditions: Plasmodium falciparum, DD2, Erythrocyte, 72 h; read-out: AC50
[2] = system: P. berghei-ANKA-GFP-LucCON liver stage parasites in HepG2-A16-CD81EGFP cells; test: P. berghei liver stage Pb-Luc assay, Method 1 (UCSD, 1536-well); assay type: cell-based, Plasmodium berghei; conditions: Plasmodium berghei, 48 h, P. berghei liver stage, average of 2 wells on a 1536 well plate; for activity at 1 µM: 1 µM compound treatment (10 mM stocks); for activity at 3 µM: 3 µM compound treatment (10 mM stocks)
HepG2-A16-CD81EGFP cells = conditions: average of 2 wells; for HepG2 1uM growth rep1 / HepG2 1uM growth rep2: HepG2, 1 µM compound treatment (10 mM stocks); for HepG2 1uM growth rep1 / HepG2 3uM growth rep1: replicate 1, normalized; for HepG2 1uM growth rep2 / HepG2 3uM growth rep2: replicate 2, normalized; for HepG2 3uM growth rep1 / HepG2 3uM growth rep2: HepG2, 3 µM compound treatment (10 mM stocks)
[3] = replicate 1, normalized, read-out: PbLuc 1uM growth rep1
[4] = replicate 2, normalized, read-out: PbLuc 1uM growth rep2
[5] = replicate 1, normalized, read-out: PbLuc 3uM growth rep1
[6] = replicate 2, normalized, read-out: PbLuc 3uM growth rep2

| Compound | AC50 [1] [µM] | activity at 1 µM [2, 3] [%] | activity at 1 µM [2, 4] [%] | activity at 3 µM [2, 5] [%] | activity at 3 µM [2, 6] [%] | HepG2 1uM growth rep1 (HepG2-A16-CD81EGFP cells) [%] | HepG2 1uM growth rep2 (HepG2-A16-CD81EGFP cells) [%] | HepG2 3uM growth rep1 (HepG2-A16-CD81EGFP cells) [%] | HepG2 3uM growth rep2 (HepG2-A16-CD81EGFP cells) [%] |
| --- | --- | --- | --- | --- | --- | --- | --- | --- | --- |
| CCOc1ccccc1NC(=O)Cn1c(-c2ccc(Cl)cc2)noc1=O [MLS000529487-01] | 5.96 | 100 | 128 | 102 | 133 | 101 | 91 | 84 | 90 |
| COc1ccc2[nH]c(C)c(CCN(Cc3cccs3)C(S)=Nc3ccccc3)c2c1 [MLS000529828-01] | 2.66 | 145 | 108 | 101 | 128 | 91 | 90 | 85 | 88 |
| Cc1ccccc1C1C(C#N)=C2N=C(N)c3c(sc4c3CCCCC4)N2C2=C1C(=O)CCC2 (stereo not drawn) [MLS000543544-01] | 2.66 | 129 | 99 | 79 | 94 | 94 | 95 | 90 | 96 |
| Cc1cc(C)c(C)c(S(=O)(=O)NCc2ccc(C(=O)N3CCCCC3)cc2)c1C [MLS000547926-01] | 3.76 | 124 | 129 | 104 | 108 | 93 | 95 | 87 | 94 |
| CCCCc1c(C)c(C#N)c2nc3ccccc3n2c1Nc1c(C)n(C)n(-c2ccccc2)c1=O [MLS000555448-01] | 2.66 | 131 | 125 | 114 | 127 | 92 | 93 | 87 | 94 |
| Cc1noc(C)c1CSc1nc2sc3c(c2c(=O)n1C)CCCC3 [MLS000564913-01] | 8.41 | 120 | 107 | 61 | 89 | 92 | 88 | 88 | 92 |
| COc1cccc(C2C3=C(N=c4sc(=Cc5ccccc5O)c(=O)n42)c2ccccc2CC3)c1OC (stereo not drawn) [MLS000580951-01] | 2.99 | 115 | 99 | 96 | 91 | 91 | 93 | 90 | 96 |
| Cc1cc(C)n(-c2nnc(N3CCN(c4ccccc4)CC3)nn2)n1 [MLS000695202-01] | 0.596 | 122 | 82 | 91 | 76 | 99 | 95 | 90 | 98 |
| CCOC(=O)c1c(NC(=O)C[n+]2ccc(N(C)C)cc2)sc(C)c1C [MLS000710762-01] | 1.33 | 75 | 72 | 18 | 30 | 91 | 84 | 65 | 65 |
| C/C(=N\Nc1nc(-c2ccccc2O)nc2ccccc12)c1ccccc1 [MLS000714167-01] | 0.75 | 134 | 124 | 108 | 121 | 91 | 94 | 91 | 97 |
| CCN(CC)CCN1C(=O)c2ccccc2NC1c1ccc(Br)cc1 (stereo not drawn) [MLS000723891-01] | 1.5 | 82 | 70 | 13 | 21 | 103 | 94 | 84 | 91 |
| Cc1ccc(-c2cc(C(F)(F)F)n3ncc(C(=O)N4CCCCC4c4cccnc4)c3n2)cc1 (stereo not drawn) [MLS000729132-01] | 1.88 | 126 | 132 | 100 | 119 | 101 | 94 | 89 | 91 |
| O=C(Nc1ccc(C2=NCCN2)cc1)c1ccc(C(=O)Nc2ccc(C3=NCCN3)cc2)c(Cl)c1 [MLS000737368-01] | 0.473 | 107 | 94 | 72 | 81 | 102 | 94 | 85 | 95 |
| O=C(Nc1ccc(Nc2ccncc2)cc1)c1ccc(Nc2ccnc3ccc([N+](=O)[O-])cc23)cc1 [MLS000766132-01] | 0.75 | 125 | 103 | 94 | 98 | 92 | 91 | 89 | 92 |
| COc1ccc(Nc2cc(C)nc(NCc3ccccc3)n2)cc1 [MLS000768693-01] | 13.3 | 94 | 74 | 21 | 35 | 90 | 91 | 82 | 84 |
| O=C(Nc1ccc(S(=O)(=O)N2CCOCC2)cc1)c1cc(-c2cc(Cl)ccc2O)n[nH]1 [MLS000778989-01] | 2.66 | 131 | 90 | 37 | 31 | 107 | 100 | 70 | 76 |
| CCOC(=O)C1CCN(C(=O)c2cc(C(C)(C)C)nn2Cc2ccccc2)CC1 [MLS000860456-01] | 4.73 | 119 | 98 | 89 | 96 | 105 | 95 | 88 | 93 |
| COc1cc(O)c(C(CCN2CCCCC2)c2ccc(N(C)C)cc2)c(OC)c1 (stereo not drawn) [MLS000879496-01] | 2.66 | 126 | 95 | 91 | 95 | 108 | 100 | 87 | 98 |
| COc1ccc(-n2nc(C(=O)NCC(=O)N3CCN(c4ccccc4OC)CC3)c3ccccc3c2=O)c(OC)c1 [MLS000936211-01] | 2.11 | 82 | 118 | 90 | 112 | 89 | 88 | 92 | 89 |
| CCC(=O)N1CCc2cc(Br)cc(S(=O)(=O)N3CCCCC3CC)c21 (stereo not drawn) [MLS000936752-01] | 1.06 | 89 | 100 | 89 | 116 | 106 | 96 | 87 | 93 |
| COc1cc(NC(=O)c2cc([N+](=O)[O-])ccc2NC(=O)CNC2CCCCC2C)cc(OC)c1 (stereo not drawn) [MLS000950459-01] | 5.96 | 94 | 109 | 82 | 122 | 96 | 92 | 90 | 90 |
| N#Cc1c(N2CCN(c3ccc(F)cc3)CC2)nc(N)c2c(N)nc3c(c12)CC(=O)N3C1CC1 [MLS001003889-01] | 0.668 | 114 | 88 | 44 | 56 | 108 | 97 | 85 | 94 |
| CC(C)CCN(CCC(C)C)CC(O)Cn1c2ccccc2c(=O)c2ccccc21 (stereo not drawn) [MLS001030199-01] | 1.88 | 128 | 103 | 76 | 87 | 105 | 96 | 84 | 94 |
